For series [1], the target named is Amyloid-beta precursor protein (Homo sapiens) (UniProt P05067). Nature of the series: Inhibition of amyloid beta (unknown origin) aggregation at 10 uM incubated for 20 hrs by Tht-based fluorescence spectroscopy assay relative to control.
Series [2] shares this target. The experiment in a line: Inhibition of amyloid beta (unknown origin) aggregation at 1 uM incubated for 20 hrs by Tht-based fluorescence spectroscopy assay relative to control.
Series [3] can be described thus: Aqueous solubility of compound by shake flask method. Type of series: physicochemical. As to conditions: water.
Series [4] in a line: Cytotoxicity against rat PC12 cells measured for 24 hrs by WST-assay. Type of series: toxicity, cell-based, PC-12.
Series [5] concerns the target Amyloid-beta precursor protein (Homo sapiens) (UniProt P05067). Nature of the series: Inhibition of amyloid beta (unknown origin) aggregation assessed as change in aggregated monomers structure measured for 10 hrs by Tht-based fluorescence spectroscopy assay.
For series [6] the target is unchanged. The experiment in a line: Inhibition of amyloid beta (unknown origin) aggregation assessed as reduction in rod like structure by […] analysis.
Series [7] shares this target. Nature of the series: Inhibition of amyloid beta (unknown origin) aggregation assessed as reduction in beta-sheet formation by CD spectroscopy analysis.
Series [8] shares this target. The experiment in a line: Inhibition of amyloid beta (unknown origin) aggregation assessed as aggregate diameter by […] analysis.

Values after ≈ are worked out from the molar mass of the structure shown. Active and inactive are the calls of the source. No cut-off for these calls is given here. Where only a bound is given, the exact number is not on record here.

Chain of Amyloid-beta precursor protein (Homo sapiens) (P05067 whole entry): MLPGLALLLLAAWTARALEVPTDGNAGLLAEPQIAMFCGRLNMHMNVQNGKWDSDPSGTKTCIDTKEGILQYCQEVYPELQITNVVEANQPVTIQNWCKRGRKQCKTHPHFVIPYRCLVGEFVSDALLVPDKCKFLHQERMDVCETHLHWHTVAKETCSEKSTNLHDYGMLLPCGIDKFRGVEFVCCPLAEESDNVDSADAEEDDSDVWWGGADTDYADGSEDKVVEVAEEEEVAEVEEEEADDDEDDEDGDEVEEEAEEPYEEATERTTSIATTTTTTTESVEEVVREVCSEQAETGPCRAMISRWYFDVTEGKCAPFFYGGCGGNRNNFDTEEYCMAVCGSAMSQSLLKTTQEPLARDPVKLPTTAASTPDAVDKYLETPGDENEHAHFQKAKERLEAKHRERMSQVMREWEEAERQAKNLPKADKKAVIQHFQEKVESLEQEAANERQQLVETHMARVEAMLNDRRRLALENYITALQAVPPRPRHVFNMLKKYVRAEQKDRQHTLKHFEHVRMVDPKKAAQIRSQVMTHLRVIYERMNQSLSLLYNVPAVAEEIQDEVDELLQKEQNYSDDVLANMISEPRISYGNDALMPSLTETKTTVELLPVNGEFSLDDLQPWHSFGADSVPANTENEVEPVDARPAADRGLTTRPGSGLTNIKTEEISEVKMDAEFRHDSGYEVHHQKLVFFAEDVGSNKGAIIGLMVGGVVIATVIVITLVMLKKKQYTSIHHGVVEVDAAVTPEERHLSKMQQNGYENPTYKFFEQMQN

Usually inhibition stands for the relative decrease from the control value, in per cent. The solubility (thermodynamic) is solubility found after equilibrating the solid with the medium. As a reminder, the CC50 is the concentration at which the toxic effect on the cells reaches its halfway point. A higher CC50 goes with better tolerance by the cells. For the molecule `O=C(Cc1cc(O)cc(O)c1)NCCc1ccc(O)c(O)c1`, the inhibition in series [1] was 25%; in series [2], 0%. In series [3], this molecule yielded a solubility (thermodynamic) of 1800 µM (≈ 546 µg/mL). Also, the CC50 at 24 h in series [4] is more than 150 µM.

As to `COC(=O)[C@H](Cc1ccc(O)c(O)c1)NC(=O)c1cc(O)c(O)c(O)c1`, the results for the inhibition in series [1] and in series [2] were 95% and 30%, respectively. Further, the solubility (thermodynamic) in series [3] is 377 µM (≈ 137 µg/mL). Besides, it took 150 µM to reach half-maximal cytotoxicity in series [4] (CC50 at 24 h).

For the molecule `O=C(Cc1ccc(O)cc1)NCCc1ccc(O)c(O)c1`, the figures for the inhibition in series [1] and in series [2] were 80% and 18%, respectively. In series [3], this molecule registered a solubility (thermodynamic) of 2000 µM (≈ 575 µg/mL). The molecule also gave a CC50 at 24 h in series [4] of more than 150 µM.

Turning to `O=C(Cc1cccc(O)c1O)NCCc1ccc(O)c(O)c1`, the inhibition in series [1] amounted to 70%; in series [2], 0%. For the same molecule, the solubility (thermodynamic) in series [3] came to 2000 µM (≈ 607 µg/mL). In series [4], the CC50 at 24 h was more than 150 µM.

Turning to `O=C(Cc1ccccc1)NCCc1ccc(O)c(O)c1`, the inhibition in series [1] came to 30%; in series [2] it was 0%. In series [3], this molecule registered a solubility (thermodynamic) of 1300 µM (≈ 353 µg/mL). This molecule had a CC50 at 24 h in series [4] of more than 150 µM.

With `N[C@@H](Cc1ccc(O)c(O)c1)C(=O)O`, the inhibition in series [1] was 31%; in series [2] it was 0%.

`O=C1C=C(c2ccc(O)c(O)c2)OC(c2cc(O)ccc2O)C1` (centres undefined) returned an inhibition in series [2] of 76%. Besides, the thermodynamic solubility in series [3] amounted to 2340 µM (≈ 735 µg/mL).

Consider `O=C(N[C@H](CO)Cc1ccc(O)c(O)c1)c1ccc(O)cc1`, for which the results for the inhibition in series [1] and in series [2] were 20% and 0%, respectively. Besides, the solubility (thermodynamic) in series [3] came out at 1600 µM (≈ 485 µg/mL). The molecule also returned a CC50 at 24 h in series [4] of more than 150 µM.

`O=C(N[C@H](CO)Cc1ccc(O)c(O)c1)c1cccc(O)c1O`: the inhibition in series [1] is 80%; in series [2], 0%. Further, the solubility (thermodynamic) in series [3] was 1300 µM (≈ 415 µg/mL). Besides, the CC50 at 24 h in series [4] is more than 150 µM.

With `O=C(/C=C/c1ccc(O)c(O)c1)NCCc1ccc(O)c(O)c1`, the inhibition worked out at 100% in series [1] and 55% in series [2]. This molecule returned a solubility (thermodynamic) in series [3] of 1500 µM (≈ 473 µg/mL). The molecule also returned a CC50 at 24 h in series [4] of more than 150 µM. Besides, the inhibition result in series [5] and in series [6] was “Active” throughout. Further, in series [7], the inhibition result is “inactive”. For the same molecule, the Activity in series [8] was determined as 74 nm.

For `O=C(Cc1cc(O)ccc1O)NCCc1ccc(O)c(O)c1`, the values for the inhibition in series [1] and in series [2] were 80% and 19%, respectively. The molecule also came in with a solubility (thermodynamic) in series [3] of 800 µM (≈ 243 µg/mL). The molecule further came in with a CC50 at 24 h in series [4] of more than 150 µM.

On to `O=C(Cc1ccc(O)c(O)c1)NCCc1ccc(O)c(O)c1`, for which the inhibition is 92% in series [1] and 29% in series [2]. In series [3], this molecule showed a thermodynamic solubility of 2500 µM (≈ 758 µg/mL). Further, in series [4], the CC50 at 24 h was more than 150 µM.

Turning to `O=C(N[C@H](CO)Cc1ccc(O)c(O)c1)c1cc(O)cc(O)c1`, the values for the inhibition in series [1] and in series [2] were 22% and 0%, respectively. In addition, in series [3], the solubility (thermodynamic) is 1500 µM (≈ 479 µg/mL). The molecule further came in with a CC50 at 24 h in series [4] of more than 150 µM.

In series [1], `O=C(/C=C/c1ccc(O)c(O)c1)N[C@@H](Cc1ccc(O)c(O)c1)C(=O)O` had an inhibition of 86%. This molecule displayed a thermodynamic solubility in series [3] of 1410 µM (≈ 507 µg/mL). Moreover, the CC50 at 24 h in series [4] was more than 150 µM.

For `O=C(N[C@H](CO)Cc1ccc(O)c(O)c1)c1ccccc1`, the figures for the inhibition in series [1] and in series [2] were 70% and 0%, respectively. For the same molecule, the solubility (thermodynamic) in series [3] is 700 µM (≈ 201 µg/mL). In series [4], this molecule came in with a CC50 at 24 h of more than 150 µM.

Turning to `O=C(N[C@H](CO)Cc1ccc(O)c(O)c1)c1ccc(O)c(O)c1`, the figures for the inhibition in series [1] and in series [2] were 90% and 35%, respectively. Moreover, the thermodynamic solubility in series [3] worked out at 1200 µM (≈ 383 µg/mL). In series [4], this molecule returned a CC50 at 24 h of more than 150 µM.

In the case of `O=C(/C=C/c1ccccc1)NCCc1ccc(O)c(O)c1`, the values for the inhibition in series [1] and in series [2] were 92% and 40%, respectively. In series [3], this molecule returned a thermodynamic solubility of 750 µM (≈ 212 µg/mL). The same molecule came in with a CC50 at 24 h in series [4] of more than 150 µM.

As for `O=C(N[C@H](CO)Cc1ccc(O)c(O)c1)c1cc(O)c(O)c(O)c1`, the inhibition in series [1] is 85%; in series [2], 16%. The same molecule gave a solubility (thermodynamic) in series [3] of 3000 µM (≈ 1010 µg/mL). In series [4], this molecule gave a CC50 at 24 h of 80 µM.

Consider `O=C(Cc1cc(O)c(O)c(O)c1)NCCc1ccc(O)c(O)c1`, for which the values for the inhibition in series [1] and in series [2] were 90% and 20%, respectively. In series [3], this molecule gave a thermodynamic solubility of 3200 µM (≈ 1020 µg/mL). In series [4], this molecule had a CC50 at 24 h of 80 µM.

Turning to `O=C(N[C@H](CO)Cc1ccc(O)c(O)c1)c1cc(O)ccc1O`, the inhibition in series [1] amounted to 70%; in series [2], 28%. For the same molecule, in series [3], the thermodynamic solubility was found to be 2500 µM (≈ 798 µg/mL). Besides, in series [4], the CC50 at 24 h was more than 150 µM.

The record behind these values is ChEMBL document CHEMBL5550149, “Synthesis and evaluation of catecholamine derivatives as amyloid-beta aggregation inhibitors” (Bioorg Med Chem Lett, 2024).
